For 5 compounds, IC50 results are on record in patent US20100160250A1, “METHOD FOR TREATING INFLAMMATORY CONDITIONS” (priority 2008, published 2010).

Common to all, as to format: cell-based
Test [1] has as its target T1, P2X7 receptor (Homo sapiens, UniProt Q99572).
T1 sequence (Q99572 1-595): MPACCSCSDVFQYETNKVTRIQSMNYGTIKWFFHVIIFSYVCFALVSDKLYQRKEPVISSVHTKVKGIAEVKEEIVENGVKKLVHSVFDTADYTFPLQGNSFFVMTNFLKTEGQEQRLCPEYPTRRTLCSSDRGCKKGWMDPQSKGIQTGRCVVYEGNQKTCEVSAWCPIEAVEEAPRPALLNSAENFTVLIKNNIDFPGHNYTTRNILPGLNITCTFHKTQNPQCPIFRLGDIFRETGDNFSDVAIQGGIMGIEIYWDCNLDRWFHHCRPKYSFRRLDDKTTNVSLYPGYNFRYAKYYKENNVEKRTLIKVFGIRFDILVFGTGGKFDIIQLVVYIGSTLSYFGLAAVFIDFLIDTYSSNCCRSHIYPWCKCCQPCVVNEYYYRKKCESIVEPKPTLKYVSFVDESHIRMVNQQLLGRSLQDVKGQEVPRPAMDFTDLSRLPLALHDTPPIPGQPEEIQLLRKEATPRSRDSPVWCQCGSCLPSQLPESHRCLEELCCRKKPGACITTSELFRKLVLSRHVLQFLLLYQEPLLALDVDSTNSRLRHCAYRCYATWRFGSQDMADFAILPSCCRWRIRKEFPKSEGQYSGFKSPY
The test can be described thus: Pore formation assay (Yo-Pro dye influx) in 1321N1 cells expressing P2X7, BzATP challenge. Further details: expressed in transfected cells; host or cells: human astrocytoma 1321N1 cells. The conditions noted are these: 1321N1 cells expressing P2X7, 100 uM BzATP, Yo-Pro fluorescence after 90 minutes. As to the method:
Inhibition of Yo-Pro fluorescent dye influx into the cells following P2X7 receptor activation provides a read-out of compounds potency in inhibition of pore formation activity of the P2X7 receptor.
Assay was conducted essentially as in Alcaraz et al. Human astrocytoma (1321N1) cells expressing P2X7 were seeded in 96-well plates at a density of 200,000 cells/well in assay buffer consisting of 5 mM KCl, 140 mM KAspartate, 10 mM glucose, 10 mM Hepes pH 7.0, 10 mM N-methyl-D-glucoseamine, 1 mM EDTA and 1 uM Yo-Pro dye. Cells were exposed to serially diluted concentrations of compound and then challenged with 100 uM BzATP. Yo-Pro fluorescence was measured after 90 minutes. Inhibition of Yo-Pro dependent fluorescence indicates the assayed compound is an antagonist of the P2X7 receptor.

In test [2] the target is T1, P2X7 receptor. The test can be described thus: Calcium signalling (Fluo-3, FLIPR) in 1321N1 cells expressing P2X7, BzATP challenge. Further details: expressed in transfected cells; host or cells: human astrocytoma 1321N1 cells. The conditions noted are these: human astrocytoma 1321N1 cells expressing P2X7, 30 uM BzATP; read-out: Inhibition of Ca^+2 signaling IC50. As for the experimental part: Inhibition of Ca^2+ influx into the cell by antagonists of the P2X7 receptor measures inhibition of the ion channel activity of the P2X7 receptor.
Human astrocytoma (1321N1) cells expressing P2X7 were grown to confluency in 96-well plates. Cells were loaded with a solution of Fluo-3 AM (2.5 μM final concentration) in an assay buffer consisting of 10 mM KCl, 118 mM NaCl, 0.25 mM CaCl2, 1 mM MgCl2, 20 mM HEPES, 10 mM glucose, pH 7.4. After a 60-minute incubation with Fluo-3 AM at 25° C., cells were washed and stimulated with serially diluted concentrations of compound and then challenged with 30 uM BzATP. Calcium fluorescence was measured using the FLIPR 89 (Molecular Devices Corp., Sunnyvale, Calif.) and results were calculated using Prism Graph Pad version 3.03 (San Diego, Calif.). Inhibition of calcium dependent fluorescence indicates the assayed compound is an antagonist of the P2X7 receptor.

Test [3] has as its target T1, P2X7 receptor. The test can be described thus: IL-1β secretion assay in LPS-primed human monocytes stimulated with ATP. On the set-up: monocytes were selected by adherence to the tissue culture plastic; endogenous in cells; host or cells: LPS-primed adherent monocytes from human peripheral blood. The conditions noted are these: human peripheral blood monocytes, 1 ng/mL LPS, 1 mM ATP, 30 min; read-out: IL1β inhibition IC50. The source says: Inhibition of IL-1β release by antagonists of the P2X7 receptor is a model of ameliorating inflammatory condition. This assay is an in vitro assay of cytokine secretion that can be used to evaluate the ability of compounds of this invention of Formula I to inhibit cytokine secretion, as the secretion of cytokines contributes to the inflammation in asthma, COPD and other pulmonary diseases, as well as in RA, IBD and neuropathic pain.
Peripheral blood from healthy human volunteers was collected in an acid-citrate-dextrose (ACD) buffer to prevent clotting, layered over a Ficoll-Paque gradient (1:1), and centrifuged for 45 minutes at 1200 rpm. The interface between the plasma layer and the Ficoll layer (buffy coat) was then diluted in RPMI 1640/10% heat inactivated FBS and centrifuged for 10 minutes at 1500 rpm. The resultant pellet was re-suspended in media containing 1 ng/mL lipopolysaccharide (LPS) and plated at a density of 500,000 cells/mL. After a 3 hour incubation (37° C., 5% CO2, humidified air) monocytes were selected by adherence to the tissue culture plastic by washing wells with media. Following the media wash, cells were incubated for 2 minutes with the antagonists prior to the addition of 1 mM ATP. Cells were allowed to incubate with compounds for 30 minutes at 37° C. after which the supernatant was removed for immediate determination of IL-1β concentration. The concentration of IL-1β in cell supernatants was measured using the Bio-Plex (Bio-Rad) system according to manufacture's instructions and inhibition constants were calculated using Prism Graph Pad version 3.03 (San Diego, Calif.). IC50 values represent the concentrations of antagonist compounds necessary to inhibit 50% of the activity (calcium dependent fluorescence or IL-1β concentration) elicited by a given concentration of ATP.

With `O=C(Nc1ncnc2c1ncn2[C@@H]1O[C@H](C(=O)NCCO)C2OC3(CCCCC3)O[C@@H]21)NC1CCCCC1` (stereo partly drawn) [Compound 44, 6-(cyclohexylurea)adenosine 2′,3′-cyclohexyl ketal 5′-(2-hydroxy)ethyl carboxamide], the IC50 against P2X7 receptor [1] was 257 nM; at P2X7 receptor [2], 404 nM; at P2X7 receptor [3], 58 nM.

Consider `O=C(Nc1ncnc2c1ncn2[C@@H]1O[C@H](C(=O)O)C2OC3(CCCCC3)O[C@@H]21)NC12CC3CC(CC(C3)C1)C2` (stereo partly drawn) [Compound 38], for which the IC50 against P2X7 receptor [1] was determined as 52 nM; on P2X7 receptor [2], 597 nM; on P2X7 receptor [3], 98 nM.

Regarding `O=C(Nc1ncnc2c1ncn2[C@@H]1O[C@H](CO)C2OC3(CCCCC3)O[C@@H]21)NC1CCCCC1` (stereo partly drawn) [Compound 39, 6-(cyclohexylurea)adenosine 2′,3′-cyclohexyl ketal], the IC50 worked out at 346 nM at P2X7 receptor [1], 477 nM at P2X7 receptor [2] and 65 nM on P2X7 receptor [3].

In the case of `CCNC(=O)[C@H]1O[C@@H](n2cnc3c(NC(=O)NC4CCCCC4)ncnc32)[C@H]2OC3(CCCCC3)OC12` (stereo partly drawn) [Compound 43, 6-(cyclohexylurea)adenosine 2′,3′-cyclohexyl ketal 5′-ethyl carboxamide], the IC50 was 152 nM against P2X7 receptor [1], 295 nM at P2X7 receptor [2] and 69 nM at P2X7 receptor [3].

For `CCNC(=O)OC[C@H]1O[C@@H](n2cnc3c(NC(=O)NC4CCCCC4)ncnc32)[C@H]2OC3(CCCCC3)OC12` (stereo partly drawn) [Compound 46], the IC50 at P2X7 receptor [1] came out at 234 nM; on P2X7 receptor [2], 852 nM; on P2X7 receptor [3] it was 99 nM.

One may read the IC50 as the concentration at which inhibition is half-maximal.
